Where two headings read alike, the source gives them in different places.
Legend:
CYP2E1 [1] = biological target: T1, CYP2E1 (Sus scrofa, UniProt P79383); experiment: Inhibition of p-nitrophenol hydroxylase (PNPH) activity in porcine hepatic microsomes
Method: (§1) All procedures were done on ice.
(§2) All steroids were dissolved in methanol. […] Kinetic studies were performed under linear conditions.
(§3) The activities were measured in pooled microsomes, thus taking into consideration between-individual variations in enzyme activities and potential response to the presence of steroids.

CYP1A2 [2] = biological target: T2, CYP1A2 (Sus scrofa, UniProt F1SJ26); experiment: Inhibition of 7-methoxyresorufin O-demethylase (MROD) activity in porcine hepatic microsomes
T2 sequence (F1SJ26 1-516): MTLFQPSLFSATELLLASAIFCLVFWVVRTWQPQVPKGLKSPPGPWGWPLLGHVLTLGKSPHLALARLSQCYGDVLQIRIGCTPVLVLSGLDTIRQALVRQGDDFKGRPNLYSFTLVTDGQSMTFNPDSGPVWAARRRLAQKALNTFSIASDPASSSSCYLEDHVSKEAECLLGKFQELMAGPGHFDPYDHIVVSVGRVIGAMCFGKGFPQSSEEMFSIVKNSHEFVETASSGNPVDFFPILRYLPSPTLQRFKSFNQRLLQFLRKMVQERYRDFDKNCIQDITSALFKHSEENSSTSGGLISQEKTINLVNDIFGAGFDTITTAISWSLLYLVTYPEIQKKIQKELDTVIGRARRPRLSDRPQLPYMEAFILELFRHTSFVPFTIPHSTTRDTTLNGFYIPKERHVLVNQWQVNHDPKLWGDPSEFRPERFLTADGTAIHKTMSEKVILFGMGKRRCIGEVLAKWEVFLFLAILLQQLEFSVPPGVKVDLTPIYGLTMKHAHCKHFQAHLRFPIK
Method: as §1, §2, §3

CYP1A1 [3] = experiment: Inhibition of 7-ethoxyresorufin O-deethylase (EROD) activity in porcine hepatic microsomes
Method: as §1, §2, §3

CYP1A1 [4] = experiment: Enzyme kinetic analysis of EROD (resorufin formation from 7-ethoxyresorufin) in porcine hepatic microsomes; format: in vitro ADME; details: CI 95% confidence interval
Method: as §1, §2
V=(Vmax1*S)/(Km1+S)+(V max2*S)/(Km2+S),
where Km1 and Km2 are Michaelis constants for the high- and low-affinity components, respectively, and Vmax1 and Vmax2 are the maximum reaction velocities for the high- and low-affinity components, respectively.

CYP1A2 [5] = biological target: T2, CYP1A2
Method: as §1, §2

CYP2E1 [6] = biological target: T1, CYP2E1; details: cited from earlier work
CYP1A1 [7] = tested on: CYP1A1; parameters: method as in Zamaratskaia et al., [2009]; details: 1.8 to 72 pmol/ml; microsomes from entire and castrated male pigs; ref Zamaratskaia et al., [2009]; cited from earlier work
[8] = all concentrations tested (up to 100.0 µM), microsomes from mature male pigs
[9] = steroid 0.55, 1.0 and 100.0 µM, pooled microsomes from entire male pigs
[10] = 100 µM steroid, pooled microsomes from three entire male pigs, altered = differs from control by at least 30%
[11] = lower concentrations (0.02 and 1.0 µM), pooled microsomes from entire male pigs

T1 sequence (P79383 whole entry): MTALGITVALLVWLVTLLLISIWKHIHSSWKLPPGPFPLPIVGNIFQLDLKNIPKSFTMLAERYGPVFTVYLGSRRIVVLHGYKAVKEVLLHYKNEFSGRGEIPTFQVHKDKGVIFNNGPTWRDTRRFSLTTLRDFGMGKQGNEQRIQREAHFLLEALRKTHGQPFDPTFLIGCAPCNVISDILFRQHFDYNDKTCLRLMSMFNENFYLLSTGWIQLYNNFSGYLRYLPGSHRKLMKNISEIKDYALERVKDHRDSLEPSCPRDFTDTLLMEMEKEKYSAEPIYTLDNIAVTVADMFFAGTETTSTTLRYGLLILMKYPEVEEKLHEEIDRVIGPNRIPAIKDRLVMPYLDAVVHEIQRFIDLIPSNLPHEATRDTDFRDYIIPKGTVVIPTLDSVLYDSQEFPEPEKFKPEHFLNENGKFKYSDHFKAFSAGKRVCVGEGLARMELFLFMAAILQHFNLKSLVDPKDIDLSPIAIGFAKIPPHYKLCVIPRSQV

SMILES	Inhibition of PNPH activity (CYP2E1 [1]; [8])	Inhibition of EROD activity (CYP1A1 [3]; [9])	Inhibition of MROD activity (CYP1A2 [2]; [10])	Inhibition of MROD activity (CYP1A2 [2]; [11])	Inhibition of EROD activity (CYP1A1 [3]; [10])	Inhibition of EROD activity (CYP1A1 [3]; [11])	further results
C[C@]12CC[C@H](O)C[C@@H]1CC[C@@H]1[C@@H]2CC[C@]2(C)C=CC[C@@H]12 [3β-androstenol]	inhibited only by 100 µM of 17β-estradiol	only 17β-estradiol and 17α-estradiol inhibited	–	–	–	–	Inhibition of MROD activity (CYP1A2 [2]; [9]): only 17β-estradiol and 17α-estradiol inhibited
CCOc1ccc2nc3ccc(=O)cc-3oc2c1 [7-ethoxyresorufin]	–	–	–	–	–	–	Km (CYP1A1 [4]; high affinity component): 0.01 µM; Km (CYP1A1 [4]; low affinity component): 1.7 µM; Vmax, pmol/min/mg (CI) (CYP1A1 [4]; low affinity component): 15.2 (9.64–20.71) pmol/min/mg
COc1ccc2nc3ccc(=O)cc-3oc2c1 [7-methoxy-resorufin, 7-methoxyresorufin]	–	–	–	–	–	–	Km (CYP1A2 [5]): 0.13 µM
C[C@]12CC[C@@H]3c4ccc(O)cc4CC[C@H]3[C@@H]1CC[C@H]2O [17α-estradiol]	inhibited only by 100 µM of 17β-estradiol	–	inhibited	no inhibitory effect	inhibited	no inhibitory effect	–
C[C@]12CC[C@@H]3c4ccc(O)cc4CC[C@H]3[C@@H]1CC[C@@H]2O [17β-estradiol]	–	–	inhibited	no inhibitory effect	inhibited	no inhibitory effect	Inhibition of PNPH activity (CYP2E1 [1]; 100 µM steroid, pooled microsomes from three mature entire male pigs): Inhibition of PNPH activity was observed; Inhibition of PNPH activity (CYP2E1 [1]; lower concentrations (0.02 and 1.0 µM), microsomes from mature male pigs): observed only in the presence of high concentrations; Type of inhibition of PNPH (CYP2E1 [6]; microsomes from prepubertal male pigs, ref Zamaratskaia et al. ([2007])): mixed inhibitor; Inhibition of PNPH activity (CYP2E1 [6]; physiological concentrations, ref Rasmussen et al. (2010a)): inhibit; Effect on EROD activity (CYP1A1 [7]): did not alter
C[C@]12CCC(=O)C[C@@H]1CC[C@@H]1[C@@H]2CC[C@]2(C)[C@@H](O)CC[C@@H]12 [DHT, dihydrotestosterone]	inhibited only by 100 µM of 17β-estradiol	only 17β-estradiol and 17α-estradiol inhibited	–	–	–	–	Magnitude of MROD inhibition (CYP1A2 [2]; steroid 0.55, 1.0 and 100.0 µM, relative to control incubations): ≤ 30%

Source: PMC3131678 (Interdisciplinary Toxicology, 2011)
